Source: EP4610269A1, “UROKINASE PLASMINOGEN ACTIVATOR SURFACE RECEPTOR (UPAR) LIGANDS FOR DIAGNOSTIC OR THERAPEUTIC USE” (3B Pharmaceuticals GmbH, priority 2024, dated 2025)
pIC50: −log10 of the molar value. Read-outs that look alike come from different tables or passages of the source. Where a SMILES comes first, the peptide text is derived from it. Bridges are numbered along the chain shown (N, C = ends). [ ]: non-standard residue; d: D form. The star is where a group is joined. DOTA = O=C(O)CN1CCN(CC(=O)O)CCN(CC(=O)*)CCN(CC(=O)O)CC1; Phe(4-NO2) = N[C@@H](Cc1ccc([N+](=O)[O-])cc1)C(=O)O; Oic = O=C(O)[C@@H]1C[C@@H]2CCCC[C@@H]2N1; Phe(4-NH2) = Nc1ccc(C[C@H](N)C(=O)O)cc1; Ser(ΨH,HPro) = O=C(O)[C@@H]1COCN1; Hyp = O=C(O)[C@@H]1C[C@@H](O)CN1; Pentanoyl(4-Me) = CC(C)CCC(=O)*; Cha = N[C@@H](CC1CCCCC1)C(=O)O; Cit = NC(=O)NCCC[C@H](N)C(=O)O; αMeL = CC(C)C[C@](C)(N)C(=O)O; Butoxycarbonyl = CCCCOC(=O)*; dOrn = NCCC[C@@H](N)C(=O)O; Nva = CCC[C@H](N)C(=O)O; Pentanoyl = CCCCC(=O)*; X7 = CCCOCC(=O)*

Assays:
[1] = target: T1, uPAR-expressing HEC-265 human endometrial adenocarcinoma cells (Homo sapiens, UniProt Q03405); assay: Competitive FACS binding assay; settings: pIC50 category of FACS binding
T1 construct: Cell surface uPAR-expressing HEC-265 human endometrial adenocarcinoma cells; host or cells: HEC-265
T1 sequence (Q03405 23-335): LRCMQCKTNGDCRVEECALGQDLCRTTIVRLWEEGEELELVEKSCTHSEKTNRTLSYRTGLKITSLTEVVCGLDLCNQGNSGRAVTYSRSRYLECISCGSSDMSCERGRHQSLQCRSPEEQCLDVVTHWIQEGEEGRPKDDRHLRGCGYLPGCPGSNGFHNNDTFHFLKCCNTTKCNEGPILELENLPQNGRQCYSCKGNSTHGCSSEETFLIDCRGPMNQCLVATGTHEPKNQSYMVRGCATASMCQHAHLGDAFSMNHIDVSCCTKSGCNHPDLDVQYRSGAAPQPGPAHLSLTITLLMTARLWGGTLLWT
Summary of the method: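 HEC-265 cells incubated 1 h at 4 °C with 10 nM biotinylated uPAR peptide tracer plus increasing test compound, then stained with APC-streptavidin on ice. Median APC fluorescence by flow cytometry; 4PL fit gives pIC50.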

[2] = target: T2, human uPAR (uPAR-Fc) (Homo sapiens, UniProt Q03405); assay: Surface plasmon resonance (SPR) assay, single cycle kinetics; assay type: binding; settings: pKD category for uPAR SPR activity assay, uPAR-Fc on Protein A-Chip, 25°C, read-out: pKD CAT (converted)
T2 construct: comprising amino acids Leu23-Arg303 according to UniProt entry Q03405.1; purchased R&D Systems 10378-UK-100
T2 sequence (Q03405 23-303): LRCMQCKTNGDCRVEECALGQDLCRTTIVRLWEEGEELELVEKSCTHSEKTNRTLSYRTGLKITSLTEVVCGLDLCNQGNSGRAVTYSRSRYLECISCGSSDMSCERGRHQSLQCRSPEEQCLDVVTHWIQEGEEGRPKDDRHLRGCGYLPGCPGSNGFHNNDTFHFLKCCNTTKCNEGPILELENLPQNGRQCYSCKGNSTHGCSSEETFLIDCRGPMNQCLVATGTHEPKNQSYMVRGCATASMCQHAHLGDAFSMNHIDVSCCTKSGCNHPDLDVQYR
Summary of the method: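 uPAR-Fc (Leu23-Arg303 extracellular domains, human IgG1 Fc) captured on Protein A chip to ~2000 RU; single-cycle kinetics at 25°C in HEPES running buffer pH 7.4 with 0.1% DMSO. KD from double-referenced sensorgrams fitted to 1:1 Langmuir model, reported as pKD.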

| Compound | pIC50 [1] | Kd [2] [µM] | Kd ([2]; single cycle kinetics) [µM] |
| --- | --- | --- | --- |
| CCCCC(=O)N[C@H]1CSSC[C@@H](C(N)=O)NC(=O)[C@H](CCC)NC(=O)[C@H]([C@@H](C)CC)NC(=O)[C@@H]2C[C@@H](O)CN2C(=O)[C@@H]2CCCN2C(=O)[C@H](Cc2ccccc2)NC(=O)[C@H](Cc2ccc([N+](=O)[O-])cc2)NC(=O)[C@H](CCCCNC(=O)CN2CCN(CC(=O)O)CCN(CC(=O)O)CCN(CC(=O)O)CC2)NC(=O)[C@H](CCCNC(N)=O)NC1=O [UPAR-257, Pent-[Cys-Cit-Lys(DOTA)-Nif-Phe-Pro-Hyp-Ile-Nva-Cys]-NH2] (Pentanoyl-C[Cit]K(DOTA)[Phe(4-NO2)]FP[Hyp]I[Nva]C-NH2; disulfide 1-10) | ≥ 8.00 | < 0.00158 | – |
| CCC[C@@H]1NC(=O)[C@H]([C@@H](C)CC)NC(=O)[C@@H]2C[C@@H](O)CN2C(=O)[C@@H]2CCCN2C(=O)[C@H](Cc2ccccc2)NC(=O)[C@H](Cc2ccc(O)cc2)NC(=O)[C@H](CCC(N)=O)NC(=O)[C@H](CCCNC(=N)N)NC(=O)[C@@H](NC(=O)[C@](C)(CC(C)C)NC(C)=O)CSSC[C@@H](C(N)=O)NC1=O [UPAR-485, Ac-Aml-[Cys-Arg-Gln-Tyr-Phe-Pro-Hyp-Ile-Nva-Cys]-NH2] (Ac-[αMeL]CRQYFP[Hyp]I[Nva]C-NH2; disulfide 2-11) | ≥ 8.00 | – | < 0.00158 |
| CCCCC(=O)N[C@H]1CSSC[C@@H](C(N)=O)NC(=O)[C@H](CCC)NC(=O)[C@H]([C@@H](C)CC)NC(=O)[C@@H]2C[C@@H](O)CN2C(=O)[C@@H]2CCCN2C(=O)[C@H](Cc2ccccc2)NC(=O)[C@H](CC2CCCCC2)NC(=O)[C@H](CCC(N)=O)NC(=O)[C@H](CCCNC(=N)N)NC1=O [UPAR-373, Pent-[Cys-Arg-Gln-Cha-Phe-Pro-Hyp-Ile-Nva-Cys]-NH2] (Pentanoyl-CRQ[Cha]FP[Hyp]I[Nva]C-NH2; disulfide 1-10) | ≥ 8.00 | – | < 0.00158 |
| CCCCC(=O)N[C@H]1CSSC[C@@H](C(N)=O)NC(=O)[C@H](CCC)NC(=O)[C@H]([C@@H](C)CC)NC(=O)[C@@H]2C[C@@H](O)CN2C(=O)[C@@H]2C[C@@H]3CCCC[C@@H]3N2C(=O)[C@H](Cc2ccccc2)NC(=O)[C@H](Cc2ccc(O)cc2)NC(=O)[C@H](CCC(N)=O)NC(=O)[C@H](CCCNC(=N)N)NC1=O [UPAR-387, Pent-[Cys-Arg-Gln-Tyr-Phe-Oic-Hyp-Ile-Nva-Cys]-NH2] (Pentanoyl-CRQYF[Oic][Hyp]I[Nva]C-NH2; disulfide 1-10) | ≥ 8.00 | – | < 0.00158 |
| CCCCC(=O)N[C@H]1CSSC[C@@H](C(N)=O)NC(=O)[C@H](CCC)NC(=O)[C@H]([C@@H](C)CC)NC(=O)[C@@H](CCCN)NC(=O)[C@@H]2CCCN2C(=O)[C@H](Cc2ccccc2)NC(=O)[C@H](Cc2ccc(O)cc2)NC(=O)[C@H](CCC(N)=O)NC(=O)[C@H](CCCNC(=N)N)NC1=O [UPAR-438, Pent-[Cys-Arg-Gln-Tyr-Phe-Pro-orn-Ile-Nva-Cys]-NH2] (Pentanoyl-CRQYFP[dOrn]I[Nva]C-NH2; disulfide 1-10) | 7.50 to 7.90 | – | 0.00158 to 0.01 |
| CC[C@H](C)[C@@H]1NC(=O)[C@@H](C)NC(=O)[C@@H]2COCN2C(=O)[C@H](Cc2ccccc2)NC(=O)[C@H](Cc2ccc(O)cc2)NC(=O)[C@H](CCC(N)=O)NC(=O)[C@H](CCCNC(N)=O)NC(=O)[C@@H](NC(=O)CCC(C)C)CSSC[C@@H](C(N)=O)NC(=O)[C@H](CC(C)C)NC1=O [UPAR-321, iHex-[Cys-Cit-Gln-Tyr-Phe-Oxa-ala-Ile-Leu-Cys]-NH2] ({Pentanoyl(4-Me)}-C[Cit]QYF[Ser(ΨH,HPro)][dA]ILC-NH2; disulfide 1-10) | ≥ 8.00 | 0.00158 to 0.01 | – |
| CCCCC(=O)N[C@H]1CSSC[C@@H](C(N)=O)NC(=O)[C@H](CCC)NC(=O)[C@H]([C@@H](C)CC)NC(=O)[C@@H]2C[C@@H](O)CN2C(=O)[C@@H]2CCCN2C(=O)[C@H](Cc2ccccc2)NC(=O)[C@H](Cc2ccc(N)cc2)NC(=O)[C@H](CCCCNC(=O)CN2CCN(CC(=O)O)CCN(CC(=O)O)CCN(CC(=O)O)CC2)NC(=O)[C@H](CCCNC(N)=O)NC1=O [UPAR-320, Pent-[Cys-Cit-Lys(DOTA)-Aph-Phe-Pro-Hyp-Ile-Nva-Cys]-NH2] (Pentanoyl-C[Cit]K(DOTA)[Phe(4-NH2)]FP[Hyp]I[Nva]C-NH2; disulfide 1-10) | ≥ 8.00 | < 0.00158 | – |
| CC[C@H](C)[C@@H]1NC(=O)[C@@H](C)NC(=O)[C@@H]2CCCN2C(=O)[C@H](C)NC(=O)[C@H](Cc2ccc(O)cc2)NC(=O)[C@H](CCC(N)=O)NC(=O)[C@H](CCCNC(N)=O)NC(=O)[C@@H](NC(=O)CCC(C)C)CSSC[C@@H](C(N)=O)NC(=O)[C@H](CC(C)C)NC1=O [UPAR-263, iHex-[Cys-Cit-Gln-Tyr-Ala-Pro-ala-Ile-Leu-Cys]-NH2] ({Pentanoyl(4-Me)}-C[Cit]QYAP[dA]ILC-NH2; disulfide 1-10) | ≤ 6.90 | > 0.1 | – |
| CCCCC(=O)N[C@H]1CSSC[C@@H](C(N)=O)NC(=O)[C@H](CCC)NC(=O)[C@H]([C@@H](C)CC)NC(=O)[C@@H]2C[C@@H](O)CN2C(=O)[C@@H]2CCCN2C(=O)[C@H](Cc2ccccc2)NC(=O)[C@H](Cc2ccc(O)cc2)NC(=O)[C@H](CCCCNC(=O)CN2CCN(CC(=O)O)CCN(CC(=O)O)CCN(CC(=O)O)CC2)NC(=O)[C@H](CCC(=O)O)NC1=O [UPAR-471, Pent-[Cys-Glu-Lys(DOTA)-Tyr-Phe-Pro-Hyp-Ile-Nva-Cys]-NH2] (Pentanoyl-CEK(DOTA)YFP[Hyp]I[Nva]C-NH2; disulfide 1-10) | ≥ 8.00 | – | < 0.00158 |
| CCCOCC(=O)N[C@H]1CSSC[C@@H](C(N)=O)NC(=O)[C@H](CC(C)C)NC(=O)[C@H]([C@@H](C)CC)NC(=O)[C@@H](C)NC(=O)[C@@H]2CCCN2C(=O)[C@H](Cc2ccccc2)NC(=O)[C@H](Cc2ccc(O)cc2)NC(=O)[C@H](CCC(N)=O)NC(=O)[C@H](CCCNC(N)=O)NC1=O [UPAR-212, PrOAc-[Cys-Cit-Gln-Tyr-Phe-Pro-ala-Ile-Leu-Cys]-NH2] (X7-C[Cit]QYFP[dA]ILC-NH2; disulfide 1-10) | 7.50 to 7.90 | 0.01 to 0.1 | – |
| CCCCC(=O)N[C@H]1CSSC[C@@H](C(N)=O)NC(=O)[C@H](CCC)NC(=O)[C@H]([C@@H](C)CC)NC(=O)[C@@H](CO)NC(=O)[C@@H]2CCCN2C(=O)[C@H](Cc2ccccc2)NC(=O)[C@H](Cc2ccc(O)cc2)NC(=O)[C@H](CCC(N)=O)NC(=O)[C@H](CCCNC(=N)N)NC1=O [UPAR-329, Pent-[Cys-Arg-Gln-Tyr-Phe-Pro-ser-Ile-Nva-Cys]-NH2] (Pentanoyl-CRQYFP[dS]I[Nva]C-NH2; disulfide 1-10) | ≥ 8.00 | < 0.00158 | – |
| CC(C)CCC(=O)N[C@H]1CSSC[C@@H](C(N)=O)NC(=O)[C@H](CC(C)C)NC(=O)[C@H](CC2CCCCC2)NC(=O)[C@@H](C)NC(=O)[C@@H]2CCCN2C(=O)[C@H](Cc2ccccc2)NC(=O)[C@H](Cc2ccc(O)cc2)NC(=O)[C@H](CCC(N)=O)NC(=O)[C@H](CCCNC(N)=O)NC1=O [UPAR-326, iHex-[Cys-Cit-Gln-Tyr-Phe-Pro-ala-Cha-Leu-Cys]-NH2] ({Pentanoyl(4-Me)}-C[Cit]QYFP[dA][Cha]LC-NH2; disulfide 1-10) | ≥ 8.00 | < 0.00158 | – |
| CCCCOC(=O)N[C@H]1CSSC[C@@H](C(N)=O)NC(=O)[C@H](CCC)NC(=O)[C@H]([C@@H](C)CC)NC(=O)[C@@H]2C[C@@H](O)CN2C(=O)[C@@H]2C[C@@H](O)CN2C(=O)[C@H](Cc2ccccc2)NC(=O)[C@H](Cc2ccc(O)cc2)NC(=O)[C@H](CCCCNC(=O)CN2CCN(CC(=O)O)CCN(CC(=O)O)CCN(CC(=O)O)CC2)NC(=O)[C@H]([C@@H](C)O)NC1=O [UPAR-128, Butoc-[Cys-Thr-Lys(DOTA)-Tyr-Phe-Hyp-Hyp-Ile-Nva-Cys]-NH2] (Butoxycarbonyl-CTK(DOTA)YF[Hyp][Hyp]I[Nva]C-NH2; disulfide 1-10) | ≥ 8.00 | < 0.00158 | – |
| CCCCOC(=O)N[C@H]1CSSC[C@@H](C(N)=O)NC(=O)[C@H](CCC)NC(=O)[C@H]([C@@H](C)CC)NC(=O)[C@@H]2C[C@@H](O)CN2C(=O)[C@@H]2CCCN2C(=O)[C@H](Cc2ccccc2)NC(=O)[C@H](Cc2ccc(O)cc2)NC(=O)[C@H](CCCCNC(=O)CN2CCN(CC(=O)O)CCN(CC(=O)O)CCN(CC(=O)O)CC2)NC(=O)[C@H]([C@@H](C)O)NC1=O [UPAR-248, Butoc-[Cys-Thr-Lys(DOTA)-Tyr-Phe-Pro-Hyp-Ile-Nva-Cys]-NH2] (Butoxycarbonyl-CTK(DOTA)YFP[Hyp]I[Nva]C-NH2; disulfide 1-10) | ≥ 8.00 | < 0.00158 | – |
| CCCCC(=O)N[C@H]1CSSC[C@@H](C(N)=O)NC(=O)[C@H](CCC)NC(=O)[C@H]([C@@H](C)CC)NC(=O)[C@@H](CCC(=O)O)NC(=O)[C@@H]2CCCN2C(=O)[C@H](Cc2ccccc2)NC(=O)[C@H](Cc2ccc(O)cc2)NC(=O)[C@H](CCC(N)=O)NC(=O)[C@H](CCCNC(=N)N)NC1=O [UPAR-436, Pent-[Cys-Arg-Gln-Tyr-Phe-Pro-glu-Ile-Nva-Cys]-NH2] (Pentanoyl-CRQYFP[dE]I[Nva]C-NH2; disulfide 1-10) | 7.50 to 7.90 | – | 0.01 to 0.1 |
| CC[C@H](C)[C@@H]1NC(=O)[C@@H](CCCCNC(=O)CN2CCN(CC(=O)O)CCN(CC(=O)O)CCN(CC(=O)O)CC2)NC(=O)[C@@H]2CCCN2C(=O)[C@H](Cc2ccccc2)NC(=O)[C@H](Cc2ccc(O)cc2)NC(=O)[C@H](CCC(N)=O)NC(=O)[C@H](CCCNC(=N)N)NC(=O)[C@@H](NC(=O)CCC(C)C)CSSC[C@@H](C(N)=O)NC(=O)[C@H](CC(C)C)NC1=O [UPAR-367, iHex-[Cys-Arg-Gln-Tyr-Phe-Pro-lys(DOTA)-Ile-Leu-Cys]-NH2] ({Pentanoyl(4-Me)}-CRQYFP[dK](DOTA)ILC-NH2; disulfide 1-10) | ≥ 8.00 | – | 0.01 to 0.1 |
